Source: the NIST ThermoML archive (doi:10.1016/j.jct.2015.02.001)
Where “and” joins values, the source holds several entries; their conditions need not be identical. Equal entries are not always repeated. ± gives the expanded uncertainty stated by the source.

Details: Liquid, Transpiration method

COc1ccccc1C [1-methoxy-2-methylbenzene]
Details | vapor or sublimation pressure
275.8 K | 0.035 ± 0.0023 kPa
277.7 K | 0.0405 ± 0.0025 kPa
278.7 K | 0.0432 ± 0.0028 kPa
280.6 K | 0.0504 ± 0.0033 kPa
282.6 K | 0.0599 ± 0.0038 kPa
285.7 K | 0.0735 ± 0.0047 kPa
286.8 K | 0.0821 ± 0.0053 kPa
290.2 K | 0.1038 ± 0.0065 kPa
293.4 K | 0.1308 ± 0.0083 kPa
296.2 K | 0.1606 ± 0.01 kPa
298.2 K | 0.1819 ± 0.011 kPa
300.2 K | 0.2111 ± 0.013 kPa and 0.2117 ± 0.013 kPa
303.3 K | 0.2601 ± 0.016 kPa
305.1 K | 0.2865 ± 0.018 kPa
308 K | 0.3491 ± 0.022 kPa

COc1cccc(C)c1 [1-methoxy-3-methylbenzene]
Details | vapor or sublimation pressure [kPa]
276.7 K | 0.0285 ± 0.0018
277.8 K | 0.0314 ± 0.002
280.6 K | 0.0395 ± 0.0025
284.7 K | 0.0541 ± 0.0035
289.4 K | 0.0804 ± 0.005
291.9 K | 0.094 ± 0.006
297.7 K | 0.1433 ± 0.009
301.1 K | 0.1806 ± 0.011
304.1 K | 0.2286 ± 0.014
305 K | 0.2433 ± 0.015
308 K | 0.3006 ± 0.019
310 K | 0.3363 ± 0.021
312.2 K | 0.4058 ± 0.026

COc1ccc(C)cc1 [1-methoxy-4-methylbenzene]
Details | vapor or sublimation pressure
275.2 K | 0.0275 ± 0.0018 kPa
276.4 K | 0.031 ± 0.002 kPa
277.2 K | 0.0326 ± 0.0021 kPa
278.8 K | 0.0379 ± 0.0025 kPa
281.7 K | 0.0478 ± 0.003 kPa
284.8 K | 0.0612 ± 0.004 kPa
287.5 K | 0.0759 ± 0.0048 kPa
289.2 K | 0.0861 ± 0.0055 kPa
290.4 K | 0.095 ± 0.006 kPa
291.2 K | 0.0997 ± 0.0064 kPa
291.3 K | 0.1015 ± 0.0065 kPa
294.2 K | 0.1267 ± 0.008 kPa
296.2 K | 0.1436 ± 0.009 kPa
297.1 K | 0.1563 ± 0.0099 kPa
299.2 K | 0.1817 ± 0.011 kPa
300.1 K | 0.1942 ± 0.012 kPa and 0.2003 ± 0.013 kPa
301.1 K | 0.2085 ± 0.013 kPa
303.1 K | 0.2465 ± 0.016 kPa
305 K | 0.2782 ± 0.018 kPa
308 K | 0.3386 ± 0.021 kPa
